From patent publication US7345058B2, “Pyrazoles” (Hoffmann-La Roche Inc., priority 2005, dated 2008)

Each compound was assayed against Purified human HSD1 (Homo sapiens, UniProt P28845) (assay: In vitro inhibition of 11β-HSD1 (time-resolved fluorescence, cortisone to cortisol)). Settings: purified human HSD1, cortisone substrate, incubated at 37° C. for 30 min.
Type: biochemical
Description: Purified human HSD1 was diluted in 50 mM Tris-HCl, 100 mM NaCl, 0.1 mg/ml BSA, 0.02% Lubrol, 20 mM MgCl2, 10 mM glucose 6-phosphate, 0.4 mM NADPH, 60 U/ml glucose 6-phosphate dehydrogenase to a concentration of 1.5 ug/ml (Enzyme Solution). Cortisone (100 uM) in DMSO was diluted to 1 uM with 50 mM Tris-HCl, 100 mM NaCl (Substrate Solution). Testing compounds (40 uM) in DMSO were diluted 3 fold in series in DMSO and further diluted 20 fold in Substrate Solution. Enzyme Solution (10 ul/well) was added into 384 well microtiter plates followed by diluted compound solutions (10 ul/well) and mixed well. Samples were then incubated at 37° C. for 30 min. EDTA/biotin-cortisol solution (10 ul/well) in 28 mM EDTA, 100 nM biotin-cortisol, 50 mM Tris-HCl, 100 mM NaCl was then added followed by 5 ul/well of anti-cortisol antibody (3.2 ug/ml) in 50 mM Tris-HCl, 100 mM NaCl, 0.1 mg/ml BSA and the solution was incubated at 37° C. for 30 min. Five ul per well of Eu-conjugated anti-mouse IgG (16 nM) and APC-conjugated streptavidin (160 nM) in 50 mM Tris-HCl, 100 mM NaCl, 0.1 mg/ml BSA were added and the solution was incubated at room temperature for 2 hours. Signals were quantitated by reading time-resolved fluorescence on a Victor 5 reader (Wallac).
Percent inhibition of HSD 1 activity by an agent at various concentrations was calculated by the formula % Inhibition=100*[1−(Fs−Fb)/(Ft−Fb)], where: • Fs is the fluorescence signal of the sample which included the agent, • Fb is the fluorescence signal in the absence of HSD1 and agent, • Ft is the fluorescence signal in the presence of HSD1, but no agent.
The inhibitory activities of test compounds were determined by the IC50s, or the concentration of compound that gave 50% inhibition.

Purified human HSD1, sequence (P28845 whole entry): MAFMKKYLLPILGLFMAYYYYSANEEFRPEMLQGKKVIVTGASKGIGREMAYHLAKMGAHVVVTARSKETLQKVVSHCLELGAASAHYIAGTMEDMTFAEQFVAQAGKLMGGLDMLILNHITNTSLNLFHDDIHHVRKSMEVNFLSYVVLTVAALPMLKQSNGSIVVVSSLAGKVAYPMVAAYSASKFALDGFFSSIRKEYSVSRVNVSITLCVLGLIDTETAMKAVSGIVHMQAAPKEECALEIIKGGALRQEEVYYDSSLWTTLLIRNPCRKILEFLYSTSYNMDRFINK

| Compound | IC50 [µM] |
| --- | --- |
| CC(C)c1cccc(-c2c(C(=O)N3CCCC4CCCCC43)cnn2C)c1 (stereo not shown) [Example 12, [5-(3-Isopropyl-phenyl)-1-methyl-1H-py-razol-4-yl]-(octa-hydro-quinolin-1-yl)-meth-anone] | 0.059 |
| Cn1ncc(C(=O)N2CCCC3CCCCC32)c1-c1cnc2ccccc2c1 (stereo not shown) [Example 19] | 0.189 |
| CSc1ccc(-c2c(C(=O)N3CCCC4CCCCC43)cnn2C)cc1 (stereo not shown) [Example 33] | 0.078 |
| Cn1ncc(C(=O)N2CCC(Cl)C3CCCCC32)c1-c1ccccc1 (stereo not shown) [Example 36] | 0.6 |
| Cc1c(Cl)cccc1-c1c(C(=O)N2CCCC3CCCCC32)cnn1C (stereo not shown) [Example 46, [5-(3-Chloro-2-meth-yl-phenyl)-1-meth-yl-1H-pyrazol-4-yl]-(octa-hydro-quinolin-1-yl)-meth-anone] | 0.038 |
| Cn1ncc(C(=O)N2CCCC3CCCCC32)c1-c1cccc(C(F)(F)F)c1 (stereo not shown) [Example 49, [1-Methyl-5-(3-tri-fluoromethyl-phenyl)-1H-py-razol-4-yl]-(octa-hydro-quinolin-1-yl)-meth-anone] | 0.16 |
| Cn1ncc(C(=O)NC2CCCCCCC2)c1-n1cccc1 [Example 96, 1-Methyl-5-pyrrol-1-yl-1H-py-razole-4-carboxylic acidcyclooctylamide] | 0.058 |

More lines, in order of falling IC50, values ahead:

| IC50 [µM] | Compound |
| --- | --- |
| 1.48 | Cn1ncc(C(=O)N2CCCC(Cc3ccccc3)C2)c1-n1cccc1 (stereo not shown) [Example 106, (3-Benzyl-piperidin-1-yl)-(1-meth-yl-5-pyrrol-1-yl-1H-py-razol-4-yl)-methanone] |
| 1 | Cn1ncc(C(=O)N2CCCC3CCCCC32)c1-c1cccc(C=O)c1 (stereo not shown) [Example 21, 3-[2-Methyl-4-(octa-hydro-quinoline-1-carbo-nyl)-2H-pyra-zol-3-yl]-benzaldehyde] |
| 0.7 | Cn1ncc(C(=O)N2CCCC3CCCCC32)c1-c1cccc(O)c1 (stereo not shown) [Example 59, [5-(3-Hydroxy-phe-nyl)-1-methyl-1H-pyra-zol-4-yl]-(octa-hydro-quinolin-1-yl)-meth-anone] |
| 0.552 | Cn1ncc(C(=O)N2CCCC3CCCCC32)c1-c1ccc([N+](=O)[O-])cc1 (stereo not shown) [Example 55, [1-Methyl-5-(4-ni-tro-phenyl)-1H-pyra-zol-4-yl]-(octa-hydro-quinolin-1-yl)-methanone] |
| 0.26 | CCC1CCCCN1C(=O)c1cnn(C)c1-c1ccccc1 (stereo not shown) [Example 107, (2-Ethyl-piperidin-1-yl)-(1-meth-yl-5-phe-nyl-1H-pyrazol-4-yl)-methanone] |
| 0.208 | Cn1ncc(C(=O)N2CCCC3CCCCC32)c1-c1ccc(F)c(Cl)c1 (stereo not shown) [Example 39, [5-(3-Chloro-4-fluoro-phenyl)-1-meth-yl-1H-pyrazol-4-yl]-(octa-hydro-quinolin-1-yl)-meth-anone] |
| 0.195 | Cn1ncc(C(=O)N2CCCC3CCCCC32)c1-c1ccc(C(F)(F)F)c(Cl)c1 (stereo not shown) [Example 52, [5-(3-Chloro-4-tri-fluoromethyl-phenyl)-1-meth-yl-1H-pyra-zol-4-yl]-(octa-hydro-quinolin-1-yl)-meth-anone] |
| 0.121 | Cn1ncc(C(=O)N2CCCC3CCCCC32)c1-c1ccc(CO)cc1 (stereo not shown) [Example 67, [5-(4-Hydroxy-methyl-phenyl)-1-meth-yl-1H-pyra-zol-4-yl]-(octa-hydro-quinolin-1-yl)-meth-anone] |
| 0.021 | CCOc1ccc(-c2c(C(=O)N3CCCC4CCCCC43)cnn2C)c(Cl)c1 (stereo not shown) [Example 82, [5-(2-Chloro-4-eth-oxy-phenyl)-1-meth-yl-1H-pyrazol-4-yl]-(octa-hydro-quinolin-1-yl)-meth-anone] |
